Reference: patent US20210188813A1, “EZH2 INHIBITOR AND PHARMACEUTICALLY ACCEPTABLE SALTS AND POLYMORPHIC SUBSTANCES THEREOF, AND APPLICATION OF EZH2 INHIBITOR” (SHANGHAI HAIYAN PHARMACEUTICAL TECHNOLOGY CO., LTD., priority 2018, published 2021)
pIC50: −log10 of the molar value. ≈ marks a conversion by molar mass, not a printed value. Read-outs that look alike come from different tables or passages of the source. Values belong to the molecule of their own block, whether it stands above or below them.

Experiments:
PRC2 (EZH2-Y641F) = molecular target: T1, PRC2 (EZH2-Y641F) (Homo sapiens, UniProt Q15910, Y641F); assay: In vitro methyltransferase assay; type: biochemical
T1 construct: purchased Active motif
T1 sequence (Q15910 whole entry Y641F): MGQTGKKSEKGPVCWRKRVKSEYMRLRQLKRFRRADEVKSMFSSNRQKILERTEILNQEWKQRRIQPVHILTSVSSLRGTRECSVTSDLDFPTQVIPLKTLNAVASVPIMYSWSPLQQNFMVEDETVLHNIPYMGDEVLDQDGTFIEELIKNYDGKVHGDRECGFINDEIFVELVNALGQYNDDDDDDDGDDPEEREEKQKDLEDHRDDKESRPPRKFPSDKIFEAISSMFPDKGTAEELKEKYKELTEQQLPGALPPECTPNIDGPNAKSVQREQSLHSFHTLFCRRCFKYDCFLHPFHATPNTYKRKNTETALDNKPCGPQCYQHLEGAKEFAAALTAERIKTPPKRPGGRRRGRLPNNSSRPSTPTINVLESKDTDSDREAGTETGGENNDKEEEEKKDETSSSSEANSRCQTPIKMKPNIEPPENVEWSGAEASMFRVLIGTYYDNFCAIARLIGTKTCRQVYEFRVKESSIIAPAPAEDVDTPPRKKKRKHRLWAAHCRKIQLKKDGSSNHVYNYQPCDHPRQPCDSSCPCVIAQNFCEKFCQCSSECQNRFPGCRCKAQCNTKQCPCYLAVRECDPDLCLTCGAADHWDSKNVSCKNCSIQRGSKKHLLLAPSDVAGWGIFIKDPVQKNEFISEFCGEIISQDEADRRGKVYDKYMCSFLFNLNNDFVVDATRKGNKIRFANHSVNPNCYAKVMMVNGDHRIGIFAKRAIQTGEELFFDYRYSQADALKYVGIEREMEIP
T1 sequence (O75530 whole entry partner): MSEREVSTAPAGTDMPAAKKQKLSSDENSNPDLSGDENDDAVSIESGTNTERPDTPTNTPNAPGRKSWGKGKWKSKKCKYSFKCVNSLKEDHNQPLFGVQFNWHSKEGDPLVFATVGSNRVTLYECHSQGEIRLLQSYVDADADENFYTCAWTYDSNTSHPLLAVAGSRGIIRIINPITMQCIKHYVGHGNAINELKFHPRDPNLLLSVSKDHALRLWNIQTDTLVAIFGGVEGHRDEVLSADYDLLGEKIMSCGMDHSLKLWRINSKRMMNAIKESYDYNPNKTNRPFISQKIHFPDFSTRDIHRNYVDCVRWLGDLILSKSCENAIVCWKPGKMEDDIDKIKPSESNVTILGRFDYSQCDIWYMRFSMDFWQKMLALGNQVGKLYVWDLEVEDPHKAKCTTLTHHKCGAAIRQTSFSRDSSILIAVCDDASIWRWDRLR
T1 sequence (Q15022 whole entry partner): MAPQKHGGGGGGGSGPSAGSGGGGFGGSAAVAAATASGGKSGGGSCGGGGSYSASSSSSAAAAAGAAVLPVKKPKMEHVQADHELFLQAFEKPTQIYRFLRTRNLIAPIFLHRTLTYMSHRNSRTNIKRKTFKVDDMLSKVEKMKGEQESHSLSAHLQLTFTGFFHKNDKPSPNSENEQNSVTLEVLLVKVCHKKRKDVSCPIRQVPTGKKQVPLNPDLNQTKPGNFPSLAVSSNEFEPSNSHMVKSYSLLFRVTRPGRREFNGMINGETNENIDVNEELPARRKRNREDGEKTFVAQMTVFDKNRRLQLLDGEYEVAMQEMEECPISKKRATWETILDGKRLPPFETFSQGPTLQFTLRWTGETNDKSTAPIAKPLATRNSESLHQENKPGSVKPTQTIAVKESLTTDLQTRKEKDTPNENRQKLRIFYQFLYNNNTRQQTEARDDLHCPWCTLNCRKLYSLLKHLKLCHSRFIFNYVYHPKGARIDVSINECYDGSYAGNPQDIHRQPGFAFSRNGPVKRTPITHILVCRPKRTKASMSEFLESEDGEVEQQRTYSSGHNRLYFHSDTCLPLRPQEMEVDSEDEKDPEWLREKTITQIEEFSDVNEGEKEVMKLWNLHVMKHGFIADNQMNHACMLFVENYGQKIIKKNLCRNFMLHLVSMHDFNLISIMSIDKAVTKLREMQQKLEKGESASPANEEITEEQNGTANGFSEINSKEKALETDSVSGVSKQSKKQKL
T1 sequence (Q09028 whole entry partner): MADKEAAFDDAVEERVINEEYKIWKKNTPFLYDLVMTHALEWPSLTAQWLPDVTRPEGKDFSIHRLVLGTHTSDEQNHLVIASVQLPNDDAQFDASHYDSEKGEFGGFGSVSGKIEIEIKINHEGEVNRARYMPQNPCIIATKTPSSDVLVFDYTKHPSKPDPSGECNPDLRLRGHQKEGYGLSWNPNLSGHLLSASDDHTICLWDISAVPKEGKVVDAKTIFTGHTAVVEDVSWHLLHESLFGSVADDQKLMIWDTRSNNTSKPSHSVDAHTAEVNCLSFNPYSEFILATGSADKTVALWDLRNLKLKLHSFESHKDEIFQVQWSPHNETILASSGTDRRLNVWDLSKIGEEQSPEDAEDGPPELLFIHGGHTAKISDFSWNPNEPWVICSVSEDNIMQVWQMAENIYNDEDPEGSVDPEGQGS
T1 sequence (Q6ZN18 whole entry partner): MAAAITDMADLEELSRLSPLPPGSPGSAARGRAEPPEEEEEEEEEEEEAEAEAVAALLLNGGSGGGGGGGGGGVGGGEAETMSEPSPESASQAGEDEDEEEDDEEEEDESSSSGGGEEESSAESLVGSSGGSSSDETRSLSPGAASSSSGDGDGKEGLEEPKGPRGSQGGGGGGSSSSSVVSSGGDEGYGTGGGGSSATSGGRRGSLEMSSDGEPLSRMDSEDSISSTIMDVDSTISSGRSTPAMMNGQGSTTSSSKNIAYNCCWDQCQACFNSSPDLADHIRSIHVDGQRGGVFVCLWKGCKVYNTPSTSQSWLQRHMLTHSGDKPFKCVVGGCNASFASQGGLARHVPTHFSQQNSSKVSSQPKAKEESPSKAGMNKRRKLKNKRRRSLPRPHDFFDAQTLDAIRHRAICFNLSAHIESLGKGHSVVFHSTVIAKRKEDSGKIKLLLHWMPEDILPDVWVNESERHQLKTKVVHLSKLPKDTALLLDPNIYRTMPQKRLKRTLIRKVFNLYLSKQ
Procedure: Recombinant PRC2 (EZH2-Y641F) was purchased from Active motif, S-adenosyl-methionin chloride (SAM) and Poly-L-lysine (PLL) were purchased from Sigma-Aldrich, H3(1-50)K27me1 peptide was purchased from Cisbio. LANCEUltra (Perkinelmer) system was used for detection. For the enzyme activity test, tested compounds are 1:3 diluted for 8-points, and added into each well, then 100 ng enzyme is added. And then the buffer [20 mM Tris pH8.5, 2 mM MgCl2, 0.01% Tween-20, 1 mM TCEP] containing […]/250 nM H3 (1-50)K27me1 premixtures are added. After 3 hours enzyme reaction at RT, the premixed detection buffer (PLL, Europium antibody and Ulight) is added, and react for 1 h at RT, then read fluorescence on Tecan infinite pro. IC50s are counted by XLfit using a four-parameter model.

Pfeiffer cells = assay: Cell proliferation assay, Pfeiffer; type: cell-based; conditions: for pIC50: Homo sapiens, Pfeiffer, 144 h, 6 days' growth, cell counting kit-8
Procedure: (§1) Cell lines Pfeiffer (CRL-2632), suDHL-6 (CRL-2959) and suDHL-10 (CRL-2963) were obtained from ATCC. All cell lines were cultured in RPMI-1640 medium (Gibco) plus 10% FBS (Gibco). Cells are harvested by centrifuge and densities are determined using a CounterStar cell counter. Appropriate number of cells are plated in a96-well culture plate and pre-incubate overnight. Tested compounds are 1:3 diluted for 8-points and added into each well. After 6 days' growth, cell counting kit-8 (Dojindo) is used to detect cell viability and read on Tecan infinite pro. IC50s are counted by XLfit using a four-parameter model.

SU-DHL-10 = assay: Cell proliferation assay, SU-DHL-10; type: cell-based
Procedure: as §1

SU-DHL-6 = assay: Cell proliferation assay, SU-DHL-6; type: cell-based
Procedure: as §1

[1] = Dynamic solubility experiment; type: physicochemical; conditions: for solubility at 24 h: thermodynamic from solid, room temperature
Excerpt: The free base samples and the two crystal forms were plotted separately in the experiment.

pIC50 (PRC2 (EZH2-Y641F)): 5.32
Structure (SMILES): CCN(c1cc(C(=O)NCc2c(C)cc(C)[nH]c2=O)c(C)c2c1cnn2C)C1CCC(N(C)C)CC1 (stereo not shown) [D2]
pIC50 (Pfeiffer cells): < 5.52

pIC50 (PRC2 (EZH2-Y641F)): < 5.00
Structure (SMILES): CCN(c1cc(C(=O)NCc2c(C)cc(C)[nH]c2=O)c(C)c2c1cnn2C)C1CCC(N2CC(OC)C2)CC1 (stereo not shown) [D3]
pIC50 (Pfeiffer cells): < 5.52

Structure (SMILES): CCN(c1cc(C(=O)NCc2c(C)cc(C)[nH]c2=O)c(C)c2c1cnn2C)C1CCN(CC(F)(F)F)CC1 [D4]
pIC50 (PRC2 (EZH2-Y641F)): < 5.00 | pIC50 (Pfeiffer cells): < 5.52

Structure (SMILES): CCc1c(C(=O)NCc2c(C)cc(C)[nH]c2=O)cc2c(cnn2C)c1N(CC)[C@H]1CC[C@H](N2CC(OC)C2)CC1 [Free base, N-((4,6-dimethyl-2-oxo-1,2-dihydropyridin-3-yl)methyl)-5-ethyl-4-(ethyl((1S,4S)-4-(3-methoxyazetidin-1-yl)cyclohexyl)amino)-1-methyl-1H-indazole-6-carboxamide]
inhibitory activity against SU-DHL-10 cells (SU-DHL-10): high inhibitory activities | inhibitory activity against SU-DHL-6 cells (SU-DHL-6): high inhibitory activities | pIC50 (PRC2 (EZH2-Y641F)): 7.92 | inhibitory activity against EZH2 Y641F enzyme (PRC2 (EZH2-Y641F)): high inhibitory activity | inhibitory activity against EZH2 Y641F enzyme (PRC2 (EZH2-Y641F); listed as compound of formula X): high inhibitory activities | pIC50 (Pfeiffer cells): 8.15 | inhibitory activity against cells (Pfeiffer cells; Table 10): high inhibitory activity | Final pH ([1]; 0.1M HCl): 4.56 | Phenomenon ([1]; 0.1M HCl): clear | Final pH ([1]; H2O): 8.32 | Phenomenon ([1]; H2O): turbid | solubility at 24 h ([1]; aqueous buffer, pH 4.5 buffer): 3590 µg/mL (≈ 6540 µM) | solubility at 24 h ([1]; aqueous buffer, pH 6.8 buffer): 840 µg/mL (≈ 1530 µM) | Final pH ([1]; pH 4.5 buffer): 5.84 | Phenomenon ([1]; pH 4.5 buffer): turbid | Final pH ([1]; pH 6.8 buffer): 6.74 | Phenomenon ([1]; pH 6.8 buffer): turbid | solubility at 24 h ([1]; simulated gastric fluid, 0.1M HCl): > 50000 µg/mL | solubility at 24 h ([1]; water, H2O): 60 µg/mL (≈ 109 µM)
